This is an account of results in ChEMBL document CHEMBL5375943, “The Importance of Tracking "Missing" Metabolites: How and Why?” (J Med Chem, 2023).

Broadly, the bioavailability is dose-corrected exposure relative to a reference, in per cent. A higher bioavailability goes with good availability. A word on the AUC(0-t): it is exposure summed from dosing to a finite time, without extrapolation to infinity. A low value points to low exposure. The IC50 is the concentration needed to halve the response being measured. What is called clearance is the rate of elimination divided by the concentration. Higher therefore signals a high capacity for elimination.

The nature of data set [1]: Oral bioavailability in ICR mouse plasma at 5 mg/kg by LC-MS/MS analysis. Type of data set: ADME, organism-based.
The nature of data set [2]: Elimination half life in human liver microsomes. Type of data set: ADME, Microsome. The note with it: read-out: beta t1/2 (converted). A general note: Liver microsomes are a subcellular fraction often used to study metabolism.
Data set [3] is described as follows: AUC (0 to t) in Sprague-Dawley rat at 10 mg/kg, po. It is filed as ADME, organism-based. More on the design: dose 10 mg/kg, route po. The note with it: in vivo.
A short description of data set [4]: Metabolic stability in human plasma assessed as half life.
Data set [5] is described as follows: Stability in human plasma assessed as compound remaining incubated for 10 mins relative to control. It is filed as ADME, cell-free. The note with it: read-out: Stability.
The target of a further data set is Cytochrome P450 3A4 (Homo sapiens, UniProt P08684). The data set is described as follows: Inhibition of CYP3A4 in human liver microsome. It is filed as ADME, microsomes.
A short description of data set [6]: Elimination half life in human. Type of data set: ADME. Particulars: read-out: beta t1/2.
The nature of data set [7]: Clearance in Wistar rat at 3 mg/kg, iv incubated for 24 hrs by LC-MS/MS analysis. It is filed as ADME, organism-based. The note with it: in vivo.

Chain of Cytochrome P450 3A4 (P08684 whole entry): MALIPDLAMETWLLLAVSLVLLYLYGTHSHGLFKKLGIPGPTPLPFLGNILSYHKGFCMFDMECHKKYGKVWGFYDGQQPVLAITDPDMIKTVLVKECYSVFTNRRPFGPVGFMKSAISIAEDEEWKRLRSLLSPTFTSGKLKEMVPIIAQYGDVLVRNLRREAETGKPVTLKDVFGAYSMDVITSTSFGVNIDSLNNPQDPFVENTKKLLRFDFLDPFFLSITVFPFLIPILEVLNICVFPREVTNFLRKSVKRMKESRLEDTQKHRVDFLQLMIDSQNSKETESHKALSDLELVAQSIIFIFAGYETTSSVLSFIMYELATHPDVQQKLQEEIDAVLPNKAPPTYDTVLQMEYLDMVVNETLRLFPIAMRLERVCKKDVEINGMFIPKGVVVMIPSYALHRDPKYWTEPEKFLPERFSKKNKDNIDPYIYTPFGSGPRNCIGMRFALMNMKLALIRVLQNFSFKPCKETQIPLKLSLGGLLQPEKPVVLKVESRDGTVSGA

For `CCc1cc(/C(C)=N/OCc2ccc(C3CCCCC3)c(C(F)(F)F)c2)ccc1CN1CC(C(=O)O[C@H]2CC[C@@]3(C)C(=CC[C@H]4[C@@H]5CC[C@H]([C@H](C)CCCC(C)C)[C@@]5(C)CC[C@@H]43)C2)C1`, the bioavailability in data set [1] was found to be 14.7%. Moreover, in data set [2], the half-life was 155 h. Moreover, the AUC(0-t) in data set [3] worked out at 0.19 µM·h. For the molecule `C[C@H](OS(=O)(=O)O)[C@H]1CC[C@H]2[C@@H]3CC[C@H]4CC(C(=O)O)=CC[C@]4(C)[C@H]3CC[C@]12C`, the bioavailability in data set [1] was 20.4%. For the same molecule, in data set [2], the half-life was 171 h. As for `COc1ccc2[nH]c([S+]([O-])Cc3ncc(C)c(OC)c3C)nc2c1` (stereo unspecified) [OMEPRAZOLE], in data set [4], the half-life was 1 h. As to `NCCOP(=O)(O)OC[C@@H](O)CNC(=O)c1ccncc1Nc1ccc(I)cc1F`, the remaining at 10 min in data set [5] came to 30%.

Consider `OC1CC(O)(CN2CCC(COc3noc4cccc(O[C@H]5CCOC5)c34)CC2)CCO1` (stereo partly specified), for which the IC50 on Cytochrome P450 3A4 worked out at 600 nM. In the case of `COc1ccc(Cl)cc1[C@]1(F)C(=O)Nc2cc(C(F)(F)F)ccc21` [FLINDOKALNER], the half-life in data set [6] was greater than 168 h. Turning to `C[C@H](O)[C@H]1CC[C@H]2[C@@H]3CC[C@H]4CC(C(=O)O)=CC[C@]4(C)[C@H]3CC[C@]12C`, the clearance in data set [7] turned out to be 0.4 mL/min/kg. As to `C[C@H](c1nc2ncccc2c(=O)n1-c1ccc(O)cc1)N(Cc1cccnc1)C(=O)Cc1ccc(OC(F)(F)F)cc1`, half-maximal inhibition against Cytochrome P450 3A4 (IC50) required 550 nM.
